# Where two headings read alike, the source gives them in different places.
# Columns and labels:
# [1] = molecular target: T1, wild-type NS5B (amino acids 1-570; GT-1b) (Hepatitis C virus genotype 1b, UniProt Q9WMX2); assay: Surface Plasmon Resonance binding affinity to wild-type NS5B; design: species or system HCV GT-1b
# T1 construct: 21 residue C-terminal truncated forms of the NS5b protein (amino acids 1-570); GT-1b; made in house
# Description: (§1) Compounds with minimal fold difference in binding affinity may have particular clinical utility.
# (§2) In vitro studies with NS5B employed soluble, 21 residue C-terminal truncated forms of the NS5b protein (amino acids 1-570; GT-1b; wild-type and mutant M423T. See Hung, M., Wang, R., Liu, X.: ‘Preparation of HCV NS3 and NS5B to support small molecule drug discovery’, Current Protocols in Pharmacology, 2011, in press). Surface Plasmon Resonance (SPR) was used to measure the binding affinity of compounds described herein to the protein constructs. Standard amine coupling was employed to link the protein to the surface of a Biacore CM5 sensor chip using 10 mM sodium acetate pH 5.5 buffer to an immobilization level of ˜2500 RU. Experiments were performed using a Biacore T100 system at 25° C. in running buffer (50 mM Hepes pH 7.5, 5 mM MgCl2, […], 1 mM EDTA, 1 mM TCEP, 0.01% P20, 5% DMSO). Compounds were tested in a 3-fold concentration dilution series for 8 concentrations starting at 162 nM, using an association phase of 60 seconds and dissociation phase of 5 minutes at a flow rate of 100 μl min^−1. At the end of each binding cycle, a 3-second injection of a buffer (10 mM disodium tetraborate, 1M NaCl, pH8.5) at 40 μl min^−1 was used as a regeneration step to remove compounds still bound to the NS5B surface. Response data were processed using the following procedure: injections aligned in X and Y directions, double referenced using both a reference surface and buffer injections, and DMSO correction for excluded volume effects. Processed data were analyzed using non-linear least squares analysis with a global fit of a 1:1 binding model with mass transport.
# HCV replicon = HCV replicon assay in Huh-7 cells (luciferase); type: cell-based; settings: Hepatitis C virus, 72 h; Huh-7 HCV replicon cells, 3 days incubation, luciferase readout; read-out: Wild-type EC50
# Method: The anti-HCV activity of the compounds of this invention was tested in a human hepatoma Huh-7 cell line harboring a HCV replicon. The assay comprised the following steps:
# Serial dilution was performed in 100% DMSO in a 384-well plate. A solution containing a compound at 225-fold concentration of the starting final serial dilution concentration was prepared in 100% DMSO and 15 μL added to the pre-specified wells in column 3 or 13 of a polypropylene 384-well plate. The rest of the 384-well plate was filled with 10 μL100% DMSO except for columns 23 and 24, where 10 μL of 500 uM a HCV protease inhibitor (ITMN-191) in 100% DMSO was added. The HCV protease inhibitor was used a control of 100% inhibition of HCV replication. The plate was then placed on a Biomek FX Workstation to start the serial dilution. The serial dilution was performed for ten cycles of 3-fold dilution from column 3 to 12 or from column 13 to 22.
# To each well of a black polypropylene 384-well plate, 90 μL of cell media containing 1600 suspended Huh-7 HCV replicon cells was added with a Biotek uFlow Workstation. A volume of 0.4 μL of the compound solution was transferred from the serial dilution plate to the cell culture plate on a Biomek FX Workstation. The DMSO concentration in the final assay condition was 0.44%. The plates were incubated for 3 days at 37° C. with 5% CO2 and 85% humidity.
# a) Assessment of cytotoxicity: The media in the 384-well cell culture plate was aspirated with a Biotek EL405 plate-washer. A volume of 50 μL of a solution containing 400 nM Calcein AM in 100% PBS was added to each well of the plate with a Biotek uFlow Workstation. The plate was incubated for 30 minutes at room temperature before the fluorescence signal ([…]) was measured with a Perkin Elmer Envision Plate Reader.
# b) Assessment of inhibition of viral replication: The calcein-PBS solution in the 384-well cell culture plate was aspirated with a Biotek EL405 plate-washer. A volume of 20 μL of Dual-Glo luciferase buffer (Promega, Dual-Glo Luciferase Assay Reagent, cat. #E298B) was added to each well of the plate with a Biotek uFlow Workstation. The plate was incubated for 10 minutes at room temperature. A volume of 20 μL of a solution containing 1:100 mixture of Dual-Glo Stop & Glo substrate (Promega, Dual-Glo Luciferase Assay Reagent, cat. #E313B) and Dual-Glo Stop & Glo buffer (Promega, Dual-Glo Luciferase Assay Reagent, cat. #E314B) was then added to each well of the plate with a Biotek uFlow Workstation. The plate was incubated at room temperature for 10 minutes before the luminescence signal was measured with a Perkin Elmer Envision Plate Reader.
# The percent cytotoxicity was determined by calcein AM conversion to fluorescent product. The average fluorescent signal from the DMSO control wells were defined as 100% nontoxic. The individual fluorescent signal from testing compound treated well was divided by the average signal from DMSO control wells and then multiplied by 100% to get the percent viability. The percent anti-HCV replication activity was determined by the luminescence signal from the testing well compared to DMSO controls wells. The background signal was determined by the average luminescence signal from the HCV protease inhibitor treated wells and was subtracted from the signal from the testing wells as well as the DMSO control wells. Following 3-fold serial dilutions, the EC50 and CC50 values were calculated by fitting % inhibition at each concentration to the following equation: % inhibition=100%/[(EC50/[I])^b+1]
# Where b is Hill's coefficient. See, for reference, Hill, A. V., The Possible Effects of the Aggregation of the Molecules of Hemoglobin on its Dissociation Curves, J. Physiol. 40: iv-vii. (1910).
# % inhibition values at a specific concentration, for example 2 μM, can also be derived from the formula above.
# [2] = molecular target: T2, NS5B mutant M423T (amino acids 1-570; GT-1b) (Hepatitis C virus genotype 1b, UniProt Q9WMX2, M2842T); assay: Surface Plasmon Resonance binding affinity to M423T NS5B; design: species or system HCV GT-1b
# T2 construct: 21 residue C-terminal truncated forms of the NS5b protein (amino acids 1-570); GT-1b; made in house
# Description: as §1, §2
# [3] = system: NS5B mutant M423T (amino acids 1-570; GT-1b); assay: as above; design: species or system HCV GT-1b; settings: M423T KD versus wild-type KD
# Description: as §1, §2
# [4] = system: genotype 1b (Con-1 strain) HCV replicon, wild-type; assay: Transient transfection replicon assay, wild-type PI-hRluc replicon in Huh-lunet cells; type: cell-based, HCV genotype 1b (Con-1 strain); settings: Hepatitis C virus, 72 h, wild-type genotype 1b PI-hRluc replicon, three days
# [5] = system: genotype 1b (Con-1 strain) HCV replicon with NS5B M423T mutation; assay: Transient transfection replicon assay, NS5B M423T mutant PI-hRluc replicon in Huh-lunet cells; type: cell-based, HCV genotype 1b (Con-1 strain); settings: Hepatitis C virus, 72 h, read-out: Replicon transient transfection EC50 M423T
# [6] = SPR, Biacore T100, 25° C., wild-type NS5B, read-out: Wild-type KD
Structure (SMILES),"Kd [1, 6] [nM]",EC50 (HCV replicon) [nM],Kd [2] [nM],Fold difference [3],EC50 [4] [nM],EC50 [5] [nM],Kd [1] [nM]
"CC1=CC[C@H](C(=O)N(c2cc(C#CC(C)(C)C)sc2C(=O)O)C(C)C)[C@H](C)C1 (single isomer, unassigned) [Example 1]",1.4,8,7.7,5.6,–,–,–
"CC1=CC[C@@H](C(=O)N(c2cc(C#CC(C)(C)C)sc2C(=O)O)C(C)C)[C@H](C)C1 (single isomer, unassigned) [Example 2]",2.8,5,26.8,9.5,–,–,–
"CC(C)N(c1cc(C#CC(C)(C)C)sc1C(=O)O)C(=O)[C@H]1CC[C@H](C)CC1 [Comparative example 1, 5-(3,3-Dimethylbut-1-ynyl)-3-((1r,4r)-N-isopropyl-4-methylcyclohexanecarboxamido)thiophene-2-carboxylic acid, reference compound]",1.7,26,2.78,16,26,293,–
"CC(C)(C)C#Cc1cc(N(C(=O)[C@H]2CC[C@H](C)CC2)[C@H]2CC[C@H](O)CC2)c(C(=O)O)s1 [Comparative example 2, 5-(3,3-Dimethylbut-1-ynyl)-3-((1r,4R)—N-((1r,4R)-4-hydroxycyclohexyl)-4-methylcyclohexanecarboxamido)thiophene-2-carboxylic acid, reference compound]",–,6,–,–,10,343,–
"CC(C)N(C(=O)[C@H]1CC[C@H](C)C[C@@H]1C)c1cc(C#CC(C)(C)C)sc1C(=O)O [Comparative example 3, 5-(3,3-Dimethylbut-1-ynyl)-3-((1S,2S,4S)—N-isopropyl-2,4-dimethylcyclohexanecarboxamido)thiophene-2-carboxylic acid, reference compound]",–,50,–,–,–,–,–
"CC(C)N(C(=O)[C@@H]1CC[C@@H](C)C[C@H]1C)c1cc(C#CC(C)(C)C)sc1C(=O)O [Comparative example 4, 5-(3,3-Dimethylbut-1-ynyl)-3-((1R,2R,4R)—N-isopropyl-2,4-dimethylcyclohexanecarboxamido)thiophene-2-carboxylic acid, reference compound]",3.6,8,144,40,–,–,–
"CC1=CC[C@H](C(=O)N(c2cc(C#CC(C)(C)C)sc2C(=O)O)C(C)C)[C@@H](C)C1 [Example 3, 5-(3,3-Dimethylbut-1-ynyl)-3-((1S,6S)—N-isopropyl-4,6-dimethylcyclohex-3-enecarboxamido)thiophene-2-carboxylic acid]",0.7,5,4.2,–,5,14,–
"CC1=CC[C@@H](C(=O)N(c2cc(C#CC(C)(C)C)sc2C(=O)O)C(C)C)[C@@H](C)C1 [Example 4, 5-(3,3-dimethylbut-1-ynyl)-3-((1R,6S)—N-isopropyl-4,6-dimethylcyclohex-3-enecarboxamido)thiophene-2-carboxylic acid]",6.5,38,18.5,–,–,–,–
"CC1=CC[C@@H](C(=O)N(c2cc(C#CC(C)(C)C)sc2C(=O)O)C(C)C)CC1 [Example 5, (S)-5-(3,3-Dimethylbut-1-ynyl)-3-(N-isopropyl-4-methylcyclohex-3-enecarboxamido)thiophene-2-carboxylic acid]",–,10,13.7,9.0,–,–,1.5
"CC1=CC[C@H](C(=O)N(c2cc(C#CC(C)(C)C)sc2C(=O)O)C(C)C)CC1 [Example 6, (R)-5-(3,3-Dimethylbut-1-ynyl)-3-(N-isopropyl-4-methylcyclohex-3-enecarboxamido)thiophene-2-carboxylic acid]",1.3,7,14.3,11,8,40,–
"CC1=CC[C@H](C(=O)N(c2cc(C#CC(C)(C)C)sc2C(=O)O)[C@H]2CC[C@H](O)CC2)[C@@H](C)C1 [Example 7, 5-(3,3-Dimethylbut-1-ynyl)-3-((1S,6S)—N-((1r,4S)-4-hydroxycyclohexyl)-4,6-dimethylcyclohex-3-enecarboxamido)thiophene-2-carboxylic acid]",–,< 4.5,–,–,–,–,–
"CC1=CC[C@H](C(=O)N(c2cc(C#CC(C)(C)C)sc2C(=O)O)[C@H]2CC[C@H](O)CC2)CC1 [Example 8, 5-(3,3-Dimethylbut-1-ynyl)-3-((R)—N-((1r,4R)-4-hydroxycyclohexyl)-4-methylcyclohex-3-enecarboxamido)thiophene-2-carboxylic acid]",–,< 2.3,–,–,–,–,–

# Reference: patent publication US8741946B2, “Inhibitors of flaviviridae viruses” (priority 2011, dated 2014)
